Test results published in US20240335442A1 (Eurofarma Laboratórios S.A., priority 2021, published 2024).

Assays:
[1] = molecular target: human sodium channel Nav 1.8 (Homo sapiens (Human), UniProt Q9Y5Y9); assay: Automated whole-cell voltage-clamp (ScreenPatch 384P), Nav 1.8 sodium current, Protocol 2; format: cell-based; conditions: read-out: Nav1.8 IC50
Summary of the method: (§1)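 CHO cells stably expressing human Nav1.7 or Nav1.8, automated whole-cell clamp, room temperature, ≥5 min exposure at eight concentrations. Protocol 1: hold −90 mV, 0.1 Hz, test pulse 0 mV (Nav1.7) or 10 mV (Nav1.8). Protocol 2: hold −100 mV with 8 s −40 mV inactivating step, 0.05 Hz. IC50 from Hill fit of TP1A peak-current block, normalized to vehicle and positive control.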

[2] = molecular target: human sodium channel Nav 1.7 (Homo sapiens (Human), UniProt Q15858); assay: Automated whole-cell voltage-clamp (ScreenPatch 384P), Nav 1.7 sodium current, Protocol 2; format: cell-based; conditions: read-out: Nav1.7 IC50
Chain of human sodium channel Nav 1.7 (Q15858 whole entry): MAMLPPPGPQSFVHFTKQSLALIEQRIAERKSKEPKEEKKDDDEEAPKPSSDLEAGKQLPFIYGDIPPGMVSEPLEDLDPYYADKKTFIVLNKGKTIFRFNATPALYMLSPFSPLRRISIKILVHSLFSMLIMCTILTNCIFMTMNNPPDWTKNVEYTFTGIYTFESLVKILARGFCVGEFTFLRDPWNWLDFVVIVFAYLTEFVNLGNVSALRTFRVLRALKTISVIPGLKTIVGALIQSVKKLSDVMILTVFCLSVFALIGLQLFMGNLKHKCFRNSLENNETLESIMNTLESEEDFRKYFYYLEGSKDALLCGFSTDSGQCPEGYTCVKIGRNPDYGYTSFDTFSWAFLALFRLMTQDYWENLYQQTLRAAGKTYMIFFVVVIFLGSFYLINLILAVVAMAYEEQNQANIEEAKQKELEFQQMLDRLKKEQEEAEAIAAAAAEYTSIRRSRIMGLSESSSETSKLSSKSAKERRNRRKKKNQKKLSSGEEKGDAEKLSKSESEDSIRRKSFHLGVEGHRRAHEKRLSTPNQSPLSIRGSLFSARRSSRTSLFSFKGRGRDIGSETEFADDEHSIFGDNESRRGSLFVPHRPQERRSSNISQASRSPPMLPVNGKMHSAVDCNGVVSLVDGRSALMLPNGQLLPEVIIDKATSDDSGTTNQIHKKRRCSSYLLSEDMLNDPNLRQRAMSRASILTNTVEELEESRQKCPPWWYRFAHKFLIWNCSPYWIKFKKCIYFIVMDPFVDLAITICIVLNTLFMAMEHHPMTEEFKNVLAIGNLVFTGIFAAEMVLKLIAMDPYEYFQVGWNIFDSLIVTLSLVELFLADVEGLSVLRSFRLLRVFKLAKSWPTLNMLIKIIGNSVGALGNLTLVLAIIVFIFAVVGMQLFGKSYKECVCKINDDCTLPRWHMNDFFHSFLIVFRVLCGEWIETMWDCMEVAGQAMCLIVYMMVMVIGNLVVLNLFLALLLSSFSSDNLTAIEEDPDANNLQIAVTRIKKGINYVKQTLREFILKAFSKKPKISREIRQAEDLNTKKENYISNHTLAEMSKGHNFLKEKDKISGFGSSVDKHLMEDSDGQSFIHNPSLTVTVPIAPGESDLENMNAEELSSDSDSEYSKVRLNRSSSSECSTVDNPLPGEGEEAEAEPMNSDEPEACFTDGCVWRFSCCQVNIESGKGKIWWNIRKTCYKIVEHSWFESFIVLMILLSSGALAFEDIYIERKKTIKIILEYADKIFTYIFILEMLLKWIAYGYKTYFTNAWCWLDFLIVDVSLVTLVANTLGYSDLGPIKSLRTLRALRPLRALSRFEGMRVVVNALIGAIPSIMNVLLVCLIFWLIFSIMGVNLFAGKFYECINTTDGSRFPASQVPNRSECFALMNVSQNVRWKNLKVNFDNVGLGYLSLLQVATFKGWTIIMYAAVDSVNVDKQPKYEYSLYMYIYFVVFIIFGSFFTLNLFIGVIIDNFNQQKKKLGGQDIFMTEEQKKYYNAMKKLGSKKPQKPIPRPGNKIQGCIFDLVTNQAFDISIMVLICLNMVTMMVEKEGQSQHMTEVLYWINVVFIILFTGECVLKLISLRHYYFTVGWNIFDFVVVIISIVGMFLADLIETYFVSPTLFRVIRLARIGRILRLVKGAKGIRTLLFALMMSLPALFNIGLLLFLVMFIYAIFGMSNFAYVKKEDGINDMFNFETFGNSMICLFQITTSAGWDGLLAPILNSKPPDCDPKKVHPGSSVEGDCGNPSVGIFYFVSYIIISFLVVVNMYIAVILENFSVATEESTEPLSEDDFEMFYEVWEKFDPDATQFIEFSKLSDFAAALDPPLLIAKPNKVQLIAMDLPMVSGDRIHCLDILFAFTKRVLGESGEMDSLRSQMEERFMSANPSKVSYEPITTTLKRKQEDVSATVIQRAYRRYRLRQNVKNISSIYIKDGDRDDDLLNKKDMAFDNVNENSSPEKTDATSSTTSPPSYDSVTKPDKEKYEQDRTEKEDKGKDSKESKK
Summary of the method: as §1

Chain of human sodium channel Nav 1.8 (Q9Y5Y9 whole entry): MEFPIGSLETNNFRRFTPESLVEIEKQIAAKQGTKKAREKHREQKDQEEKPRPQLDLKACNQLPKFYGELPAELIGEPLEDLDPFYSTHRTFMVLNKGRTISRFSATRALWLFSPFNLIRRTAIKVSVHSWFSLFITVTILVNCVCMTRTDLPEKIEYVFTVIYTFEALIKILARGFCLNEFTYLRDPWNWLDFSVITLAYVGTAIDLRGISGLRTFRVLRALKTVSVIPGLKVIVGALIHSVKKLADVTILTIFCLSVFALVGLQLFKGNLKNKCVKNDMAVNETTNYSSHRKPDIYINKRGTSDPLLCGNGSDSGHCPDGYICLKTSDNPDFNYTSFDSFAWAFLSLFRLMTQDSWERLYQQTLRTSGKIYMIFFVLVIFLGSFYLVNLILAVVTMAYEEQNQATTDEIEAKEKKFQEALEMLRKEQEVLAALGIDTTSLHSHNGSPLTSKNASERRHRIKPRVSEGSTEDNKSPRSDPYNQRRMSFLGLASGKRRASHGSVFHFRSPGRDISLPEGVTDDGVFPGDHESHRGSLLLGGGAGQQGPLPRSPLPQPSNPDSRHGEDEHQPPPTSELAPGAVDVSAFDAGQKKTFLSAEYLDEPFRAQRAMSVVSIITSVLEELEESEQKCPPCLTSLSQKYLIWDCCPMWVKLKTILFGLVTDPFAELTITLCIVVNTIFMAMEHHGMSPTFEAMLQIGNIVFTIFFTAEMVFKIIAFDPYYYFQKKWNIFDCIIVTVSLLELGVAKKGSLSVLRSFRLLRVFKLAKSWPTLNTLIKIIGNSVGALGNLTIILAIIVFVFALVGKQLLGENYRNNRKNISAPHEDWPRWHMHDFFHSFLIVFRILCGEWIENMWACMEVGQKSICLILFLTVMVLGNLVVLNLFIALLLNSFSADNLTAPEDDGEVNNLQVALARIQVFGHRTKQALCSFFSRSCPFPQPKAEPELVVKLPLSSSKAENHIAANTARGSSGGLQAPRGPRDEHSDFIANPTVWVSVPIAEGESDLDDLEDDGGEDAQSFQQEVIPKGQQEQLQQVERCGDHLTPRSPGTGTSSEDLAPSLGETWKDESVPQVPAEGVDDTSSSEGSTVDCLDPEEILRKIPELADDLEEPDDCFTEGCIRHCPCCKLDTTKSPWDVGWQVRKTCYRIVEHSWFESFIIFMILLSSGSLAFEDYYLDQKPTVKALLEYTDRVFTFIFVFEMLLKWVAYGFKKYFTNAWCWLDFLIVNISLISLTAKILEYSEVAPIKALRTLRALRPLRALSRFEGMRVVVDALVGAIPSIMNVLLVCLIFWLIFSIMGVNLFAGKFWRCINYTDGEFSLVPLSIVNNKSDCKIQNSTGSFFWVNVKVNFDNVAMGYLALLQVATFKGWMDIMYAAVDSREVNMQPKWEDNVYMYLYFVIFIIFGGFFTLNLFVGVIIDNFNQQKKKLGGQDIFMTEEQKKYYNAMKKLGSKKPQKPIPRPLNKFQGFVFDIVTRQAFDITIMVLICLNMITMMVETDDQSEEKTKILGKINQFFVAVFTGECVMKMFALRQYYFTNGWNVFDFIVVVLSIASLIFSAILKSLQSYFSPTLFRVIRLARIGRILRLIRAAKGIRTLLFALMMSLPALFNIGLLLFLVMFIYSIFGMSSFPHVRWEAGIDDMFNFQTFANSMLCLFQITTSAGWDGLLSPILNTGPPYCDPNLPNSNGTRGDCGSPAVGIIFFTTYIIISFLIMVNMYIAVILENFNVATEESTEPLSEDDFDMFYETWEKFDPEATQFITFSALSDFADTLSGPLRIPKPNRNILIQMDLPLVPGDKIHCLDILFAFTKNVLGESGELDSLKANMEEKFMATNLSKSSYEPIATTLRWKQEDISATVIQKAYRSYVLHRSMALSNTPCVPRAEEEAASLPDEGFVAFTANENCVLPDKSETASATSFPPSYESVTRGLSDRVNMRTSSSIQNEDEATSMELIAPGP

| IC50 [1] [nM] | IC50 [2] [nM] | Structure (SMILES) |
| --- | --- | --- |
| 800 | 6600 | COc1ccc(-c2cncc(C(=O)N/N=C/c3ccc(C)cc3)n2)cc1 [Compound 65, (E)-6-(4-methoxyphenyl)-N′-(4-methylbenzylidene)pyrazine-2-carbohydrazide] |
| 189 | 2470 | CCOc1ccc(-c2nc(C(=O)N/N=C/c3cc(OC)cc(OC)c3)cnc2Cl)cc1 [Compound 209, (E)-5-chloro-N′-(3,5-dimethoxybenzylidene)-6-(4-ethoxyphenyl)pyrazine-2-carbohydrazide] |
| > 1000 | > 10000 | COc1ccc(-c2cncc(C(=O)N/N=C/c3cccnc3)n2)cc1 [Compound 77, (E)-6-(4-methoxyphenyl)-N′-(pyridin-3-ylmethylene)pyrazine-2-carbohydrazide] |
| > 1000 | > 10000 | COc1cc(/C=N/NC(=O)c2cnc(Cl)cn2)cc(OC)c1 [Compound 164, (E)-5-chloro-N′-(3,5-dimethoxybenzylidene)pyrazine-2-carbohydrazide] |
| 1000 | 8160 | COc1ccc(-c2cncc(C(=O)N/N=C/c3ccc(N(C)C)cc3)n2)cc1 [Compound 64] |
| 803 | 49.2 | COc1cc(/C=N/NC(=O)c2cncc(-c3ccc(OC)cc3C(F)(F)F)n2)cc(OC)c1 [Compound 123, (E)-N′-(3,5-dimethoxybenzylidene)-6-(4-methoxy-2-(trifluromethoxy)phenyl)pyrazine-2-carbohydrazide] |
| > 1000 | > 1000 | COc1cc(/C=N/NC(=O)c2cncc(-c3ccc(Cl)cc3)n2)cc(OC)c1 [Compound 1, 6-(4-chlorophenyl)-N′-[(E)-(3,5-dimethoxyphenyl)methylidene]pyrazine-2-carbohydrazide] |
| > 1000 | 4790 | COc1cc(/C=N/NC(=O)c2cncc(-c3ccc(OC)cc3OC(C)C)n2)cc(OC)c1 [Compound 156, (E)-N′-(3,5-dimethoxybenzylidene)-6-(2-isopropxy-4-methoxyphenyl)pyrazine-2-carbohydrazide] |
| 152 | 855 | CCOc1ccc(-c2cncc(C(=O)N/N=C/c3cc(OC)ccc3OC)n2)cc1 [Compound 3, (E)-N′-(2,5-dimethoxybenzylidene)-6-(4-ethoxyphenyl)pyrazine-2-carbohydrazide] |
| 476 | 2190 | COc1ccc(-c2cncc(C(=O)N/N=C/c3cccc(Br)c3)n2)cc1 [Compound 55, (E)-N′-(3-bromobenzylidene)-6-(4-methoxyphenyl)pyrazine-2-carbohydraizde] |
| 462 | 5480 | COc1ccc(-c2cncc(C(=O)N/N=C/c3cccc(C(F)(F)F)c3)n2)cc1 [Compound 56, (E)-6-(4-methoxyphenyl)-N′-(3-(trifluoromethyl)benzylidene)pyrazine-2-carbohydrazide] |
| 680 | > 10000 | CCOc1ccc(-c2nc(C(=O)N/N=C/c3cc(OC)cc(OC)c3)cnc2C(F)(F)F)cc1 [Compound 210, (E)-N′-(3,5-dimethoxybenzylidene)-6-(4-ethoxyphenyl)-5-(trifluoromethyl)pyrazine-2-carbohydrazide] |
| > 1000 | > 10000 | COc1ccc(-c2cncc(C(=O)N/N=C/c3cc[nH]c(=O)c3)n2)cc1 [Compound 34, (E)-6-(4-methoxyphenyl)-N′-((2-oxo-1,2-dihydropyridin-4-yl)methylene)pyrazine-2-carbohydrazide] |
| 121 | 228 | CCOc1ccc(-c2cncc(C(=O)N/N=C/c3cccc(OC)c3)n2)c(OCC)c1 [Compound 153, (E)-6-(2,4-diethoxyphenyl)-N′-(3-methoxybenzylidene)pyrazine-2-carbohydrazide] |
| > 1000 | > 10000 | COc1cc(/C=N/NC(=O)c2cncc(C(C)C)n2)cc(OC)c1 [Compound 134, (E)-N′-(3,5-dimethoxybenzylidene)-6-isopropylpyrazine-2-carbohydrazide] |
| 133 | 116 | CCOc1ccc(-c2cncc(C(=O)N/N=C/c3cccc(OC)c3)n2)c(C(F)(F)F)c1 [Compound 120, (E)-6-(4-ethoxy-2-(trifluoromethyl)phenyl)-N′-(3-methoxybenzylidene)pyrazine-2-carbohydrazide] |

| IC50 [1] [nM] | IC50 [2] [nM] | Structure (SMILES) |
| --- | --- | --- |
| 88.4 | 138 | COc1cc(/C=N/NC(=O)c2cncc(-c3ccc(OCC4CC4)cc3)n2)cc(OC)c1 [Compound 152, (E)-6-(4-(cyclopropylmethoxy)phenyl)-N′-(3,5-dimethoxybenzylidene)pyrazine-2-carbohydrazide] |
| > 1000 | 2770 | COc1ccc(-c2cncc(C(=O)N/N=C/c3ccc(OC)c(OC)c3OC)n2)cc1 [Compound 82, (E)-6-(4-methoxyphenyl)-N′-(2,3,4-trimethoxybenzylidene)pyrazine-2-carbohydrazide] |
| > 1000 | > 10000 | COc1ccc(-c2cncc(C(=O)N/N=C/c3ccc(C(F)(F)F)cc3)n2)cc1 [Compound 63, (E)-6-(4-methoxyphenyl)-N′-(4-(trifluoromethyl)benzylidene)pyrazine-2-carbohydrazide] |
| 24.9 | 322 | CCOc1ccc(-c2cncc(C(=O)N/N=C/c3ccccc3OC)n2)cc1 [Compound 26, (E)-6-(4-ethoxyphenyl)-N′-(2-methoxybenzylidene)pyrazine-2-carbohydrazide] |
| > 1000 | > 10000 | COc1cc(/C=N/NC(=O)c2nccnc2C(C)C)cc(OC)c1 [Compound 135, (E)-N′-(3,5-dimethoxybenzylidene)-3-isopropylpyrazine-2-carbohydrazide] |
| > 1000 | > 10000 | CCOc1cc(C)c(-c2cncc(C(=O)N/N=C/c3cccc(OC)c3)n2)c(C)c1 [Compound 213, (E)-6-(4-ethoxy-2,6-diemthylphenyl)-N′-(3-methoxybenzylidene)pyrazine-2-carbohydrazide] |
| > 1000 | > 10000 | COc1cc(/C=N/NC(=O)c2cncc(-c3ccc(OC)cc3OCCN(C)C)n2)cc(OC)c1 [Compound 160, (E)-N′-(3,5-dimethoxybenzylidene)-6-(2-(2-(dimethylamino)ethoxy)-4-methoxyphenol)pyrazine-2-carbohydrazide] |
| 398 | > 10000 | COc1cc(/C=N/NC(=O)c2cncc(-c3ccc(OC)nc3)n2)cc(OC)c1 [Compound 184, (E)-N′-(3,5-dimethoxybenzylidene)-6-(6-methoxypyridin-3-yl)pyrazine-2-carbohydrazide] |
| 441 | > 10000 | COc1ccc(-c2cncc(C(=O)N/N=C/c3cccc(F)c3)n2)cc1 [Compound 53, (E)-N′-(3-fluorobnezylidene)-6-(4-methoxyphenyl)pyrazine-2-carbohydrazide] |
| > 1000 | > 10000 | COc1cc(/C=N/NC(=O)c2nccnc2OC)cc(OC)c1 [Compound 141, (E)-N′-(3,5-dimethoxybenzylidene)-3-methoxypyrazine-2-carbohydrazide] |
| 231 | 256 | CC(C)Oc1ccc(-c2cncc(C(=O)N/N=C/C3CCCCCC3)n2)cc1 [Compound 183, (E)-N′-(cycloheptylmethylene)-6-(4-isopropoxyphenyl)pyrazine-2-carbohyazide] |
| > 1000 | > 10000 | CCOc1ccc(-c2nc(C(=O)N/N=C/c3cc(OC)cc(OC)c3)cnc2N)cc1 [Compound 206, (E)-5-amino-N′-(3,5-dimethoxybenzylidene)-6-(4-ethoxyphenyl)pyrazine-2-carbohydrazide] |
| 277 | 3360 | CCCOc1cccc(/C=N/NC(=O)c2cncc(-c3ccc(OC)cc3)n2)c1 [Compound 40, (E)-6-(4-methoxyphenyl)-N′-(3-propoxybenzylidene)pyrazine-2-carbohydrazide] |
| 456 | 180 | COc1cc(/C=N/NC(=O)c2cncc(-c3ccc(OC4CCCC4)cc3Cl)n2)cc(OC)c1 [Compound 157, (E)-6-(2-chloro-4-(cyclopentyloxy)phenyl)-N′-(3,5-dimethoxybenzylidene)pyrazine-2-carbohydrazide] |
| 166 | 1740 | CC1=C(/C=N/NC(=O)c2cncc(-c3ccc(OC(C)C)cc3)n2)CCCC1 [Compound 199, (E)-6-(4-isopropoxyphenyl)-N′-((2-methylcyclohept-1-en-1-yl)methylene)pyrazine-2-carbohydrzide] |

| Structure (SMILES) | IC50 [1] [nM] | IC50 [2] [nM] |
| --- | --- | --- |
| Cc1cc(C)cc(/C=N/NC(=O)c2cncc(-c3ccc(OCC(C)C)cc3)n2)c1 [Compound 86, (E)-N′-(3,5-dimethylbenzylidene)-6-(4-isobutoxyphenyl)pyrazine-2-carbohydrazide] | 209 | 141 |
